Data set [1] can be described thus: activity coefficient (dimensionless); of the first substance listed, at infinite dilution; xn = mol fraction of the nth substance listed. Conditions: 101 kPa, Liquid, Chromatography, x1 = 0.
The conditions of data set [2]: 101.33 kPa, Liquid.

Molecules are shown by their SMILES. ± gives the expanded uncertainty stated by the source.

In general, mass density refers to the mass of a sample divided by its volume.

`CCc1ccccc1` [ethylbenzene] + CCCC[N+]1(C)CCCC1.N#CN=C=[N-]: the activity coefficient in data set [1] (318.15 K) is 3.52 ± 0.24; in data set [1] (323.15 K), 3.55 ± 0.24; in data set [1] (333.15 K), 3.6 ± 0.25; in data set [1] (343.15 K), 3.65 ± 0.25; in data set [1] (353.15 K) it was 3.69 ± 0.25.

For `ClC(Cl)Cl` [trichloromethane] + CCCC[N+]1(C)CCCC1.N#CN=C=[N-], the activity coefficient in data set [1] (318.15 K) was 0.391 ± 0.034; in data set [1] (323.15 K), 0.411 ± 0.034; in data set [1] (333.15 K), 0.453 ± 0.036; in data set [1] (343.15 K) it was 0.496 ± 0.038; in data set [1] (353.15 K) it was 0.54 ± 0.039.

As to `COC(=O)OC` [dimethyl carbonate] + CCCC[N+]1(C)CCCC1.N#CN=C=[N-], the activity coefficient in data set [1] (318.15 K) amounted to 1.26 ± 0.08; in data set [1] (323.15 K), 1.27 ± 0.08; in data set [1] (333.15 K), 1.29 ± 0.08; in data set [1] (343.15 K), 1.31 ± 0.09; in data set [1] (353.15 K), 1.33 ± 0.09.

For `c1ccccc1` [benzene] + CCCC[N+]1(C)CCCC1.N#CN=C=[N-], the activity coefficient in data set [1] (318.15 K) is 1.41 ± 0.09; in data set [1] (323.15 K) it was 1.42 ± 0.09; in data set [1] (333.15 K) it was 1.46 ± 0.1; in data set [1] (343.15 K), 1.49 ± 0.1; in data set [1] (353.15 K), 1.53 ± 0.1.

For the compound `C=CCCCCCC` [oct-1-ene] + CCCC[N+]1(C)CCCC1.N#CN=C=[N-], the activity coefficient in data set [1] (318.15 K) was 47.3 ± 3.2; in data set [1] (323.15 K) it was 46.3 ± 3.2; in data set [1] (333.15 K) it was 44.4 ± 3; in data set [1] (343.15 K), 42.4 ± 2.9; in data set [1] (353.15 K), 40.8 ± 2.8.

Turning to `ClCCl` [dichloromethane] + CCCC[N+]1(C)CCCC1.N#CN=C=[N-], the activity coefficient in data set [1] (318.15 K) worked out at 0.541 ± 0.04; in data set [1] (323.15 K) it was 0.558 ± 0.04; in data set [1] (333.15 K) it was 0.591 ± 0.042; in data set [1] (343.15 K), 0.623 ± 0.043; in data set [1] (353.15 K), 0.655 ± 0.045.

For `CC(C)OC(C)C` [diisopropyl ether] + CCCC[N+]1(C)CCCC1.N#CN=C=[N-], the activity coefficient in data set [1] (318.15 K) was 17.9 ± 1.2; in data set [1] (323.15 K), 17.9 ± 1.2; in data set [1] (333.15 K), 18 ± 1.2; in data set [1] (343.15 K), 17.9 ± 1.2; in data set [1] (353.15 K) it was 17.9 ± 1.2.

On to `CCCO` [propan-1-ol] + CCCC[N+]1(C)CCCC1.N#CN=C=[N-], for which the activity coefficient in data set [1] (318.15 K) amounted to 0.688 ± 0.046; in data set [1] (323.15 K), 0.68 ± 0.046; in data set [1] (333.15 K), 0.668 ± 0.045; in data set [1] (343.15 K), 0.656 ± 0.045; in data set [1] (353.15 K) it was 0.647 ± 0.044.

As to `CCCCCCCC` [octane] + CCCC[N+]1(C)CCCC1.N#CN=C=[N-], the activity coefficient in data set [1] (318.15 K) was determined as 115 ± 8; in data set [1] (323.15 K) it was 110 ± 8; in data set [1] (333.15 K) it was 102 ± 7; in data set [1] (343.15 K), 95.2 ± 6.5; in data set [1] (353.15 K), 89.2 ± 6.1.

For the compound `C1CCOC1` [tetrahydrofuran] + CCCC[N+]1(C)CCCC1.N#CN=C=[N-], the activity coefficient in data set [1] (318.15 K) is 1.36 ± 0.09; in data set [1] (323.15 K), 1.38 ± 0.09; in data set [1] (333.15 K) it was 1.42 ± 0.09; in data set [1] (343.15 K) it was 1.46 ± 0.1; in data set [1] (353.15 K), 1.49 ± 0.1.

For the compound `Cc1ccccc1` [toluene] + CCCC[N+]1(C)CCCC1.N#CN=C=[N-], the activity coefficient was 2.17 ± 0.15 in data set [1] (318.15 K); 2.2 ± 0.15 in data set [1] (323.15 K); 2.26 ± 0.15 in data set [1] (333.15 K); 2.3 ± 0.16 in data set [1] (343.15 K); 2.35 ± 0.16 in data set [1] (353.15 K).

For `COC(C)(C)C` [2-methoxy-2-methylpropane] + CCCC[N+]1(C)CCCC1.N#CN=C=[N-], the activity coefficient in data set [1] (318.15 K) was determined as 6.04 ± 0.41; in data set [1] (323.15 K), 6.13 ± 0.42; in data set [1] (333.15 K), 6.29 ± 0.43; in data set [1] (343.15 K) it was 6.4 ± 0.44; in data set [1] (353.15 K) it was 6.53 ± 0.45.

`CCCC[N+]1(C)CCCC1.N#CN=C=[N-]` [1-butyl-1-methylpyrrolidinium dicyanamide]: the mass density is 1021.93 ± 0.57 kg/m3 in data set [2] (283.15 K); 1016.26 ± 0.55 kg/m3 in data set [2] (293.15 K); 1010.64 ± 0.53 kg/m3 in data set [2] (303.15 K); 1005.08 ± 0.51 kg/m3 in data set [2] (313.15 K); 999.56 ± 0.5 kg/m3 in data set [2] (323.15 K); 994.1 ± 0.51 kg/m3 in data set [2] (333.15 K). Besides, the mass density in data set [2] (343.15 K) was determined as 988.69 ± 0.53 kg/m3.

In the case of `CO` [methanol] + CCCC[N+]1(C)CCCC1.N#CN=C=[N-], the activity coefficient was 0.344 ± 0.032 in data set [1] (318.15 K); 0.344 ± 0.032 in data set [1] (323.15 K); 0.345 ± 0.032 in data set [1] (333.15 K); 0.347 ± 0.032 in data set [1] (343.15 K); 0.348 ± 0.032 in data set [1] (353.15 K).

Turning to `ClC(Cl)(Cl)Cl` [tetrachloromethane] + CCCC[N+]1(C)CCCC1.N#CN=C=[N-], the activity coefficient came out at 2.04 ± 0.14 in data set [1] (318.15 K); 2.11 ± 0.14 in data set [1] (323.15 K); 2.25 ± 0.15 in data set [1] (333.15 K); 2.38 ± 0.16 in data set [1] (343.15 K); 2.5 ± 0.17 in data set [1] (353.15 K).

On to `CCO` [ethanol] + CCCC[N+]1(C)CCCC1.N#CN=C=[N-], for which the activity coefficient in data set [1] (318.15 K) came to 0.55 ± 0.04; in data set [1] (323.15 K), 0.545 ± 0.04; in data set [1] (333.15 K), 0.538 ± 0.039; in data set [1] (343.15 K) it was 0.53 ± 0.039; in data set [1] (353.15 K), 0.525 ± 0.039.

`c1ccsc1` [thiophene] + CCCC[N+]1(C)CCCC1.N#CN=C=[N-]: the activity coefficient in data set [1] (318.15 K) came out at 0.851 ± 0.055; in data set [1] (323.15 K) it was 0.868 ± 0.055; in data set [1] (333.15 K), 0.901 ± 0.057; in data set [1] (343.15 K), 0.931 ± 0.059; in data set [1] (353.15 K) it was 0.962 ± 0.06.

`CCC1CCCCC1` [ethylcyclohexane] + CCCC[N+]1(C)CCCC1.N#CN=C=[N-]: the activity coefficient worked out at 50.1 ± 3.4 in data set [1] (318.15 K); 48.4 ± 3.3 in data set [1] (323.15 K); 45.1 ± 3.1 in data set [1] (333.15 K); 42.2 ± 2.9 in data set [1] (343.15 K); 39.6 ± 2.7 in data set [1] (353.15 K).

For the origin of these results see the NIST ThermoML archive (doi:10.1021/je200822w).
